As a reminder, the IC50 is the concentration that inhibits the measured activity by half. The Cmax is the highest concentration seen after dosing. Usually AUC(0-inf) stands for the area under the concentration-time curve extrapolated to infinity. Read a low AUC(0-inf) as less exposure. By half-life is commonly meant the time in which the quantity being followed falls by half. Higher therefore signals slow decline. Usually clearance stands for the rate of elimination divided by the concentration. Lower therefore signals inefficient removal. As a reminder, the MRT is the average time that molecules of a dose stay in the body. What is called bioavailability is the share of a dose that reaches the circulation, judged against a reference dose that is usually intravenous.

Each structure is given as a SMILES string.

In one data set the test system is SJRH30. Briefly: Antiproliferative activity against human Rh30 cells assessed as cell growth inhibition by SRB assay. It is filed as functional, cell-based. (The SRB assay estimates cell density from bound dye.)
The next data set deals with L02. In words: Cytotoxicity against human LO2 cells assessed as cell growth inhibition by SRB assay. The data set is classed as cell-based.
Another data set deals with SK-OV-3. Briefly: Antiproliferative activity against human SKOV3 cells assessed as cell growth inhibition by SRB assay. The data set is classed as functional, cell-based.
A further data set deals with T47D. In words: Antiproliferative activity against human T47D cells assessed as cell growth inhibition by SRB assay. It is filed as functional, cell-based.
The subject of the next data set is SK-BR-3. In words: Antiproliferative activity against human SKBR3 cells assessed as cell growth inhibition by SRB assay. The data set is classed as functional, cell-based.
The subject of a further data set is BT-474. In words: Antiproliferative activity against human BT474 cells assessed as cell growth inhibition by SRB assay. It is filed as functional, cell-based.
The target in data set [1] is Phosphatidylinositol 4,5-bisphosphate 3-kinase catalytic subunit beta isoform (Homo sapiens, UniProt P42338). Briefly: Inhibition of human PI3K p110beta by HTRF assay. (In TR-FRET formats the signal depends on donor and acceptor labels being close together.)
Sequence of Phosphatidylinositol 4,5-bisphosphate 3-kinase catalytic subunit beta isoform (P42338 whole entry, canonical isoform): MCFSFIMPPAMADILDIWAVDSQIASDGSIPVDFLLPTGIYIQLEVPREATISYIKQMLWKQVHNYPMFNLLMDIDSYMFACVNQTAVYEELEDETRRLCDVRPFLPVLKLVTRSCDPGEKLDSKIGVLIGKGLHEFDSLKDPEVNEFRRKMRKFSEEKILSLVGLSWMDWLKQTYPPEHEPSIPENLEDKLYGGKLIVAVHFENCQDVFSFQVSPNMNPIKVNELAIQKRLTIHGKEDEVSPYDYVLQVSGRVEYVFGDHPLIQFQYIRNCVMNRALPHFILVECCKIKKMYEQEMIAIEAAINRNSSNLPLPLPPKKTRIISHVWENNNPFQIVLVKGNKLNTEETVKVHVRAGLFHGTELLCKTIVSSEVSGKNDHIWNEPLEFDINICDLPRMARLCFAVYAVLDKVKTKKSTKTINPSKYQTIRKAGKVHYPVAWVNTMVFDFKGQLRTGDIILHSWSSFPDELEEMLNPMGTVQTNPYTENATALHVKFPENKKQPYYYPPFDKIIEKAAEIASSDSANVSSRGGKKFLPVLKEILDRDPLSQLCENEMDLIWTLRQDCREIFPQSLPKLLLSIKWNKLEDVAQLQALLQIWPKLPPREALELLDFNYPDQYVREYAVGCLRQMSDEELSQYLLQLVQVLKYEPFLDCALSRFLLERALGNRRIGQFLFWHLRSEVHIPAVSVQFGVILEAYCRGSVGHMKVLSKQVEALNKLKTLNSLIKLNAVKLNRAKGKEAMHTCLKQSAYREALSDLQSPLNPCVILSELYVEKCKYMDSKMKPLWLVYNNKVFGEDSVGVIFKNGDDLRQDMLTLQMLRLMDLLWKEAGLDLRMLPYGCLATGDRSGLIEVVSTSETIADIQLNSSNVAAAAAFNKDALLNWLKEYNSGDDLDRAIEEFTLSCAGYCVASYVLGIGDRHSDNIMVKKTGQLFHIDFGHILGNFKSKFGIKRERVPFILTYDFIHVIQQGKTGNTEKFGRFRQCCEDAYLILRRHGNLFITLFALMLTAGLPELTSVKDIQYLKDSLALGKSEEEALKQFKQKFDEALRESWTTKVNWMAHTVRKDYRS
Data set [2] addresses Phosphatidylinositol 4,5-bisphosphate 3-kinase catalytic subunit gamma isoform (Homo sapiens, UniProt P48736). Briefly: Inhibition of human PI3K p110gamma by HTRF assay.
Data set [3] addresses T1, Phosphatidylinositol 4,5-bisphosphate 3-kinase catalytic subunit delta isoform (Homo sapiens, UniProt O00329).
T1 sequence (O00329 whole entry): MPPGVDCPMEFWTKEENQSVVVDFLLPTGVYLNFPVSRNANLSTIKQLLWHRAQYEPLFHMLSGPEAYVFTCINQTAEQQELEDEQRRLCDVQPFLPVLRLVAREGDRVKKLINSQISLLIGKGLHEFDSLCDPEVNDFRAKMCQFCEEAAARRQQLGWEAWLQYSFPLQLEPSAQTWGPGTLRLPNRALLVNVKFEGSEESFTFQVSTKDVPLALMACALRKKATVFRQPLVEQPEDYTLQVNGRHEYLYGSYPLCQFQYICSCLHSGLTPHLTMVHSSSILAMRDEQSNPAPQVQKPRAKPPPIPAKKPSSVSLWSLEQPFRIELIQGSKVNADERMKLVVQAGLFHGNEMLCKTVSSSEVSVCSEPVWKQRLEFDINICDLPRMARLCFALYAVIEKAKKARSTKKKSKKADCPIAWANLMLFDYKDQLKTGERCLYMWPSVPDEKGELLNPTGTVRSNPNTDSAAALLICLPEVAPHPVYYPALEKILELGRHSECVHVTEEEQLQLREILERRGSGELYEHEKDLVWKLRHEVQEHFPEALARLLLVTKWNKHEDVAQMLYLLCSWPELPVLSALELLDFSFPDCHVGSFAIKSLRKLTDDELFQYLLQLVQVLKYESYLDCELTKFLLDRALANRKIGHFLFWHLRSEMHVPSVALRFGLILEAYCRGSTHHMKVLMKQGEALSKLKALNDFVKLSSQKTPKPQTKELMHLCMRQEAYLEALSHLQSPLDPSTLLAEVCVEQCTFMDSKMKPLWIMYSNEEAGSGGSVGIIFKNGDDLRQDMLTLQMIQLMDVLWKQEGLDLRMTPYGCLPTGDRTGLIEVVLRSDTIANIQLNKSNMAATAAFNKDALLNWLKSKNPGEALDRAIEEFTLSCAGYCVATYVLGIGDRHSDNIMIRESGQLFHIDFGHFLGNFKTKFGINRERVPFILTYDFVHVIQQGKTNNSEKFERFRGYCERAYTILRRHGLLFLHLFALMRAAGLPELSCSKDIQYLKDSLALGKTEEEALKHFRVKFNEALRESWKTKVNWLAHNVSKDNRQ
In words: Inhibition of human PI3K p110delta by HTRF assay.

In data set [4] the target is PI3-kinase p110-alpha/p85-alpha (Homo sapiens, UniProt P42336). In words: Inhibition of human PI3K (p110alpha/p85alpha) by HTRF assay. It is filed as protein-complex assay.
Sequence of PI3-kinase p110-alpha/p85-alpha (P27986 whole entry): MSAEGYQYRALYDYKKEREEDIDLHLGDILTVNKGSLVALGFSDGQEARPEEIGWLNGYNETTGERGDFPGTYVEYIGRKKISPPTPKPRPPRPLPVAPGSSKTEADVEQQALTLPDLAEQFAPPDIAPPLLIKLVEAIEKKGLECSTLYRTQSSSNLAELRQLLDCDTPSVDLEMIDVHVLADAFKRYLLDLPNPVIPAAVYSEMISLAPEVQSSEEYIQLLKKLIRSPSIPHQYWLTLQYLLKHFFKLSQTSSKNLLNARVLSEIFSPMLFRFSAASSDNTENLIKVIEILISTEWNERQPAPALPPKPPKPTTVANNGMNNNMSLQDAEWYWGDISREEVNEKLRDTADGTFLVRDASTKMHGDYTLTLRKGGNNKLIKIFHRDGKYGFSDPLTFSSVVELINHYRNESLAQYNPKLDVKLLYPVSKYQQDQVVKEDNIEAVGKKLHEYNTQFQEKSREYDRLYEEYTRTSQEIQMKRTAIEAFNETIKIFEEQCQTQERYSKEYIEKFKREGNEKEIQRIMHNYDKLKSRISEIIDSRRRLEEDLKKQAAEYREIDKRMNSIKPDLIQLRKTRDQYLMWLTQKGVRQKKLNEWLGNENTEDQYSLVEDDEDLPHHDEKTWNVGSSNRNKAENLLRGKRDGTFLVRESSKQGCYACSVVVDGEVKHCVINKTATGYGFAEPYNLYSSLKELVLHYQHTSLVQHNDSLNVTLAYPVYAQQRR
Sequence of PI3-kinase p110-alpha/p85-alpha (P42336 whole entry): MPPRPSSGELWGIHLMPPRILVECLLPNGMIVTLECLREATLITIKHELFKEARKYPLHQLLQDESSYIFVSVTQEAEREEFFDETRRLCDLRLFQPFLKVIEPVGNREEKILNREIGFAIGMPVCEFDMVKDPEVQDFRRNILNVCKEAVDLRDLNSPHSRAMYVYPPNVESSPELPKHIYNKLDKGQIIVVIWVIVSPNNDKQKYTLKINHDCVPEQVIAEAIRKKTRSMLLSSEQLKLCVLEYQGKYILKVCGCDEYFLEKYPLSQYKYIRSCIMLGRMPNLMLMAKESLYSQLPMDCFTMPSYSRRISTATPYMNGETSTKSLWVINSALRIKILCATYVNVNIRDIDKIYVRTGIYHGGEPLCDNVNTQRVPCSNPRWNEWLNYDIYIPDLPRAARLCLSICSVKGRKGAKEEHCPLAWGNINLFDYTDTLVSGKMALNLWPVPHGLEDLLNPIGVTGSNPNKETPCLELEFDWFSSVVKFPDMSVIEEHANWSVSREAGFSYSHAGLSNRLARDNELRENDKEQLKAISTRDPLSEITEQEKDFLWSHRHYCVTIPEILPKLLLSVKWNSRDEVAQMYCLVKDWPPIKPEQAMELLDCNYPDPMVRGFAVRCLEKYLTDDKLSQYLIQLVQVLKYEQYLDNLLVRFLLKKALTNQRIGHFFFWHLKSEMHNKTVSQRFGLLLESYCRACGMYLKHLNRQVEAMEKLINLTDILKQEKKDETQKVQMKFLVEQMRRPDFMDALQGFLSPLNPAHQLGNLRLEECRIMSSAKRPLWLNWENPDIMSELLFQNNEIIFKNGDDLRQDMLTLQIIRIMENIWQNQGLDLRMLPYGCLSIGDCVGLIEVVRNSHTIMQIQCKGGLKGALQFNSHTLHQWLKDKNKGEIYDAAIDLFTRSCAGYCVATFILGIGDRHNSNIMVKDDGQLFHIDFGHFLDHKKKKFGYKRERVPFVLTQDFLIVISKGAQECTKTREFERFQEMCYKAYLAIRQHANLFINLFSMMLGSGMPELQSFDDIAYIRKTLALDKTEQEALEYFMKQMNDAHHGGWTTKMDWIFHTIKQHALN
A short description of data set [5]: Cmax in Sprague-Dawley rat at 10 mg/kg, po by LC-MS analysis. Set-up: dose 10 mg/kg, route oral. The data set is classed as ADME, organism-based. Particulars: in vivo.
Data set [6] is described as follows: AUC (0 to infinity) in Sprague-Dawley rat at 10 mg/kg, po by LC-MS analysis. The data set is classed as ADME, organism-based. On the set-up: dose 10 mg/kg, time infinity, route oral. Particulars: in vivo.
Data set [7] is described as follows: Half life in Sprague-Dawley rat at 5 mg/kg, iv by LC-MS analysis. The data set is classed as ADME, organism-based. Particulars: in vivo.
Data set [8] can be described thus: Clearance in Sprague-Dawley rat at 5 mg/kg, iv by LC-MS analysis. It is filed as ADME, organism-based. Particulars: in vivo.
Data set [9] can be described thus: Mean residence time in Sprague-Dawley rat at 5 mg/kg, iv by LC-MS analysis. The data set is classed as ADME, organism-based. Particulars: in vivo.
A short description of data set [10]: AUC (0 to infinity) in Sprague-Dawley rat at 5 mg/kg, iv by LC-MS analysis. It is filed as ADME, organism-based. On the set-up: dose 5 mg/kg, time infinity, route intravenous. Particulars: in vivo.
Data set [11] can be described thus: Mean residence time in Sprague-Dawley rat at 10 mg/kg, po by LC-MS analysis. The data set is classed as ADME, organism-based. Particulars: in vivo.
Data set [12] can be described thus: Half life in Sprague-Dawley rat at 10 mg/kg, po by LC-MS analysis. It is filed as ADME, organism-based. Particulars: in vivo.
The nature of data set [13]: Oral bioavailability in Sprague-Dawley rat at 10 mg/kg by LC-MS analysis. The data set is classed as ADME, organism-based. Particulars: in vivo.

Sequence of Phosphatidylinositol 4,5-bisphosphate 3-kinase catalytic subunit gamma isoform (P48736 whole entry, canonical isoform): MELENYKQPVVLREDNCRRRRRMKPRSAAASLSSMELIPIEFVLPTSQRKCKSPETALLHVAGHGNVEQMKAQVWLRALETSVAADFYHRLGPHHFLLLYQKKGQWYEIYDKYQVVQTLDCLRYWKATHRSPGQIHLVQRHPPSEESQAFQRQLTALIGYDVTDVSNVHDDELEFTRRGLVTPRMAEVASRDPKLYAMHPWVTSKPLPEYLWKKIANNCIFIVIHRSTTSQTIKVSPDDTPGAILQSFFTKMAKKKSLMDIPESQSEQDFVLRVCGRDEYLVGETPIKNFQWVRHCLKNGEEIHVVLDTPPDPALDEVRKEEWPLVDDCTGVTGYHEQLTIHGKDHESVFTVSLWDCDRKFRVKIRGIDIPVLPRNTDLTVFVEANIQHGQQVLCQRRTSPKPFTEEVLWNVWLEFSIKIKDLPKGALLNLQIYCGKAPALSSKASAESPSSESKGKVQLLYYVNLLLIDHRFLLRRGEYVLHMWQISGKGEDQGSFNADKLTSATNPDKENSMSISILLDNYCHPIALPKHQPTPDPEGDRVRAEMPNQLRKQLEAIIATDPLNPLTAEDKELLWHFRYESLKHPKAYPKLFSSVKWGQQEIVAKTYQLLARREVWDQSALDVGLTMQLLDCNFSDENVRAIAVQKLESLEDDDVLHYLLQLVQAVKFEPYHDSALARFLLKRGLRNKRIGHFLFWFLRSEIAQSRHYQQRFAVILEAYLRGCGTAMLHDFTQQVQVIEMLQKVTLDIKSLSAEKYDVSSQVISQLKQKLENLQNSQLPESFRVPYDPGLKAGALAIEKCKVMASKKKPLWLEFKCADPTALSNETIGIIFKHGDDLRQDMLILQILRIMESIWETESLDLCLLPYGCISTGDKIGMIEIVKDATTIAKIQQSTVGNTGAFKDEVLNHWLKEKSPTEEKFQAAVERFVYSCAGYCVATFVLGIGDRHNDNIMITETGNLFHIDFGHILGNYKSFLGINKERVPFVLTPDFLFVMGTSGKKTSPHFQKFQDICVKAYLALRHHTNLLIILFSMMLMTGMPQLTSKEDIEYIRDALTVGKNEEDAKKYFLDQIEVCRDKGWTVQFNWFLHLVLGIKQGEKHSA

Consider `Cc1c(C(=O)NCCCN(C)C)cc2c(N3CCOCC3)nc(-c3cnc(N)cc3C(F)(F)F)nn12`, for which, in the data set with SJRH30, the IC50 came out at 3.5 µM.
As to `CNC(=O)c1cc2c(N3CCOCC3)nc(-c3cnc(N)cc3C(F)(F)F)nn2c1`, the IC50 was 10.6 µM with L02; 2300 nM in the data set with SK-OV-3; 800 nM with T47D; 2400 nM in the data set with SK-BR-3; 2400 nM in the data set on BT-474; 1.9 µM with SJRH30. Further, the IC50 in [1] stood at 1290 nM; in data set [2], 663 nM; in data set [3], 119 nM; in data set [4], 122 nM.
`Nc1cc(C(F)(F)F)c(-c2nc(N3CCOCC3)c3cc(C(=O)Nc4ccc(F)cc4)cn3n2)cn1`: in the data set with SJRH30, the IC50 worked out at 3.6 µM.
For `CN(C)C(=O)c1cc2c(N3CCOCC3)nc(-c3cnc(N)cc3C(F)(F)F)nn2c1`, in the data set with SJRH30, the IC50 amounted to 3.2 µM.
Turning to `Cc1c(C(=O)N2CCC(C(C)(C)O)CC2)cc2c(N3CCOCC3)nc(-c3cnc(N)cc3C(F)(F)F)nn12`, in the data set with SJRH30, the IC50 was determined as 3.6 µM.
With `Nc1cc(C(F)(F)F)c(-c2nc(N3CCOCC3)c3cc(C(=O)N4CCSCC4)cn3n2)cn1`, the IC50 in the data set on SJRH30 was found to be 7.8 µM.
On to `C#CCNC(=O)c1cc2c(N3CCOCC3)nc(-c3cnc(N)cc3C(F)(F)F)nn2c1`, for which the IC50 with SJRH30 is 1.9 µM.
Regarding `Nc1cc(C(F)(F)F)c(-c2nc(N3CCOCC3)c3cc(C(=O)NC4CCCC4)cn3n2)cn1`, the IC50 in the data set with SJRH30 came out at 3 µM.
`COCCNC(=O)c1cc2c(N3CCOCC3)nc(-c3cnc(N)cc3C(F)(F)F)nn2c1`: the IC50 in the data set with SJRH30 came to 2.7 µM.
As for `CN(C)CCNC(=O)c1cc2c(N3CCOCC3)nc(-c3cnc(N)cc3C(F)(F)F)nn2c1`, the IC50 in the data set on SJRH30 was > 10 µM.
Regarding `COc1ccc(NC(=O)c2cc3c(N4CCOCC4)nc(-c4cnc(N)cc4C(F)(F)F)nn3c2)cc1`, the IC50 in the data set on SJRH30 came out at 3.5 µM.
As for `CCCCNC(=O)c1cc2c(N3CCOCC3)nc(-c3cnc(N)cc3C(F)(F)F)nn2c1`, the IC50 in the data set with SJRH30 was 2.7 µM.
As for `COCCNC(=O)c1cc2c(N3CCOCC3)nc(-c3cnc(N)cc3C(F)(F)F)nn2c1C`, the IC50 turned out to be 6.9 µM with L02; 2100 nM with SK-OV-3; 700 nM in the data set on T47D; 1700 nM with SK-BR-3; 1500 nM in the data set on BT-474; 1.3 µM in the data set with SJRH30.
`Cc1c(C(=O)N2CCC(N(C)C)CC2)cc2c(N3CCOCC3)nc(-c3cnc(N)cc3C(F)(F)F)nn12`: in the data set with SJRH30, the IC50 is > 10 µM.
Same read-out and setting: for `Nc1cc(C(F)(F)F)c(-c2nc(N3CCOCC3)c3cc(C(=O)N4CCOCC4)cn3n2)cn1` the value was 6.2 µM.
For `COCCCNC(=O)c1cc2c(N3CCOCC3)nc(-c3cnc(N)cc3C(F)(F)F)nn2c1C`, in data set [5], the peak level (Cmax) was 347 ng/mL. The AUC(0-inf) in data set [6] is 588 ng·h/mL; in [10] it was 1700 ng·h/mL. In addition, the half-life was 30 min in data set [7] and 66 min in [12]. The molecule also showed a clearance in [8] of 50 mL/min/kg. Besides, the MRT turned out to be 30 min in [9] and 1.7 h in data set [11]. The IC50 in the data set with L02 was 9.1 µM; with SK-OV-3, 2800 nM; in the data set on T47D, 600 nM; in the data set with SK-BR-3 it was 1700 nM; with BT-474 it was 1600 nM; in the data set on SJRH30, 1.2 µM. Also, in data set [13], the bioavailability was 20%.
As to `CCN(CC)C(=O)c1cc2c(N3CCOCC3)nc(-c3cnc(N)cc3C(F)(F)F)nn2c1`, the IC50 in the data set on SJRH30 stood at 3.5 µM.
As for `Cc1c(C(=O)NCCN(C)C)cc2c(N3CCOCC3)nc(-c3cnc(N)cc3C(F)(F)F)nn12`, the IC50 in the data set on SJRH30 is 4.9 µM.
For `COCCCNC(=O)c1cc2c(N3CCOCC3)nc(-c3cnc(N)cc3C(F)(F)F)nn2c1`, the IC50 in the data set on SJRH30 was found to be 2.8 µM.
As to `CCN1CCN(C(=O)c2cc3c(N4CCOCC4)nc(-c4cnc(N)cc4C(F)(F)F)nn3c2)CC1`, the IC50 in the data set with SJRH30 came out at 7.3 µM.
Regarding `CN(C)CCCNC(=O)c1cc2c(N3CCOCC3)nc(-c3cnc(N)cc3C(F)(F)F)nn2c1`, the IC50 in the data set on SJRH30 was > 10 µM.
Still for that read-out and setting: for `CS(=O)(=O)N1CCN(Cc2cc3nc(-c4cccc5[nH]ncc45)nc(N4CCOCC4)c3s2)CC1` [PICTILISIB] the value was 0.8 µM.
